From patent publication US20100227853A1, “INHIBITORS OF CYCLIC AMP PHOSPHODIESTERASES” (Trustees of Boston College, priority 2008, published 2010)

Tests used:
[1] = target: T1, PDE4D2-CAT (Homo sapiens, UniProt Q08499); assay: in vitro enzyme assay, catalytic fragment of PDE4D2 (residues 86-413); assay type: biochemical
T1 construct: 86-413; made in house; host or cells: E. coli

[2] = target: T2, PDE7B (Rattus norvegicus, UniProt A0A0G2JXU0); assay: in vitro enzyme assay of PDE7B activity in extracts from rat pulmonary endothelial cells; assay type: biochemical
T2 construct: endogenous in cells; host or cells: rat pulmonary endothelial cells (extract)
T2 sequence (A0A0G2JXU0 1-446): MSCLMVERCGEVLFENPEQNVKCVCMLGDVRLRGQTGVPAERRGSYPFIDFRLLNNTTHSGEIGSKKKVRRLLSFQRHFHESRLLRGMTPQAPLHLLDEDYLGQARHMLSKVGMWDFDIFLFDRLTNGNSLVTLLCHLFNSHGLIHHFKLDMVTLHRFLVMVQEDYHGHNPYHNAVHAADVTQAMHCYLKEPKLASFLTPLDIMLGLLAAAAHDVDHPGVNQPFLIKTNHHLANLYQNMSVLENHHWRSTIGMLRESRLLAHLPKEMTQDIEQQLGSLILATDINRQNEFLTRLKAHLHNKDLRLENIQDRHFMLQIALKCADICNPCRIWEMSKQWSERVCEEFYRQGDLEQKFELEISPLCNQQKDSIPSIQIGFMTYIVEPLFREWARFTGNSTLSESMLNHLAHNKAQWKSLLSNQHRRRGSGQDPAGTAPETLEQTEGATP
From the text: FIG. 13 is the in vitro enzyme assays of PDE7B activity in extracts made from rat pulmonary endothelial cells.

[3] = test system: U937 cells; assay: TNF alpha release by LPS-treated U937 cells; assay type: cell-based
[4] = test system: Lymphoma cells; assay: in vitro assay on lymphoma cells (24 hours, Hoechst stain, fsc/ssc); assay type: cell-based
Experimental: FIGS. 6A and 6B show the in vitro assay of BC54 action. Lymphoma cells are treated with the drug for 24 hours, then stained with Hoechst dye. The cells form a clearly defined population on the fsc/ssc dot plot. Vincristine treatment was used as a positive control. […] BC54 is referred to in the figure as S54.

[5] = test system: CLL; assay: CLL assay; assay type: cell-based
[6] = test system: PDE4A, PDE4B, PDE4D, PDE7A, PDE7B, PDE8A, PDE3A; assay: Summary of PDE inhibitor profile
[7] = target: T3, PDE7B (Homo sapiens, UniProt Q9NP56); assay: in vitro enzyme assay, PDE7B catalytic domain from E. coli, hydrolysis of cAMP to AMP; assay type: biochemical; set-up: The PDE7B catalytic domain was expressed in and purified from E. coli; made in house; host or cells: E. coli
Experimental: The PDE7B catalytic domain was expressed in and purified from E. coli and tested for activity in an in vitro enzyme assay, measuring the hydrolysis of cAMP to AMP. Four dilutions of the enzyme preparation were tested at various compound concentrations (X axis). The percent of cAMP hydrolyzed is plotted on the Y axis.
Target sequence in this assay (Q9NP56 97-420 limits assumed, species assumed): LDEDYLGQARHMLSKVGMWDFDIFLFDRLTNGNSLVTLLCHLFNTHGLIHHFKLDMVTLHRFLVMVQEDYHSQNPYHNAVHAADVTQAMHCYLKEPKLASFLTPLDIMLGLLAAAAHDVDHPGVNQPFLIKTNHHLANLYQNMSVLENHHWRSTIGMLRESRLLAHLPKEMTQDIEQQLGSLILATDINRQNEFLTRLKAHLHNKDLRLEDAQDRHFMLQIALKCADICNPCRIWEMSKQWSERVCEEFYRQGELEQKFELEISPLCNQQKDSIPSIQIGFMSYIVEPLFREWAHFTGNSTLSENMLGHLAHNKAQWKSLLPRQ

[8] = target: T3, PDE7B; assay: 5FOA growth assay in fission yeast strain expressing PDE7B; assay type: cell-based; set-up: targets used in the assays are full-length proteins (as opposed to simply the catalytic domain); expressed in transfected cells; host or cells: Schizosaccharomyces pombe
Experimental: (§1) PDE inhibition allows growth in 5FOA medium as measured by optical density after 48 hours incubation at 30° C. Compound BC12 and six structural analogs were tested for growth stimulation.
(§2) Cells were pregrown in EMM medium [MP Biomedicals (Solon, Ohio), 3% glucose, filter-sterilized to avoid carmelization, which would introduce variability into the optical density of the medium] containing from 0 mM to 2.5 mM cAMP (or either 0.5 mM or 1.0 mM cGMP). This was to repress expression of the fbp1-ura4 reporter prior to exposure of cells to 5FOA medium. Cells were grown at 30° C. to exponential phase (approximately 10^7 cells/ml). Cells were collected by centrifugation and resuspended in 5FOA medium, and 25 μl were transferred to 384-well microtiter dishes (untreated, with flat clear bottoms) that had been pre-filled with 25 μl 5FOA medium and pre-pinned with 100 nl of compounds (stock solutions were generally 10 mM). Starting cell concentrations ranged from 0.5×10^5 to 4×10^5 cells/ml depending on the screening strain. […] Other positive control dishes contained 5 mM cAMP in the 5FOA medium for PDEs that lack appropriate control compounds. Cultures were grown for 48 hours at 30° C., sealed in an airtight container with moist paper towels to prevent evaporation. Optical densities (OD600) of cultures were measured using a microplate reader. Bioinformatic analysis of the results to determine composite Z scores was performed as previously described (1, 3).
Target sequence in this assay (Q9NP56 whole entry, species assumed, the tested form may be a part): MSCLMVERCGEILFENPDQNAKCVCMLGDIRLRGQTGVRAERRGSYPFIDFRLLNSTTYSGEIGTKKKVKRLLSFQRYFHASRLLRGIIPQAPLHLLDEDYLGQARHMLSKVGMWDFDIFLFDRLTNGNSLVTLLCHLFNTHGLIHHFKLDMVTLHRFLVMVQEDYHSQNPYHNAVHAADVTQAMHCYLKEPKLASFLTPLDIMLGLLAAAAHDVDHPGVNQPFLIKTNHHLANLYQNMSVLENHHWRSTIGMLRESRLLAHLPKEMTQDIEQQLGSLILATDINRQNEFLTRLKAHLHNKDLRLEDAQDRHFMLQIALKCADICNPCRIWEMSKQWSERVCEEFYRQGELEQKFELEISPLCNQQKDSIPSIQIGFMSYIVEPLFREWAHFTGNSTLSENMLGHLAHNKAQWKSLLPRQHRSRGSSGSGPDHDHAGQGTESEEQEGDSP

[9] = target: T4, PDE7A (Homo sapiens, UniProt Q13946); assay: 5FOA growth assay in fission yeast strain expressing PDE7A; assay type: cell-based; set-up: targets used in the assays are full-length proteins (as opposed to simply the catalytic domain); expressed in transfected cells; host or cells: Schizosaccharomyces pombe, PDE gene integrated in place of cgs2
Experimental: as §1, §2

[10] = target: T5, PDE4A1 (Mus musculus, UniProt O89084); assay: cAMP response in yeast strain expressing PDE4A1; assay type: cell-based, Murine
T5 construct: targets used in the assays are full-length proteins (as opposed to simply the catalytic domain); expressed in transfected cells; host or cells: Schizosaccharomyces pombe, PDE gene integrated in place of cgs2
T5 sequence (O89084 1-610 isoform O89084-2): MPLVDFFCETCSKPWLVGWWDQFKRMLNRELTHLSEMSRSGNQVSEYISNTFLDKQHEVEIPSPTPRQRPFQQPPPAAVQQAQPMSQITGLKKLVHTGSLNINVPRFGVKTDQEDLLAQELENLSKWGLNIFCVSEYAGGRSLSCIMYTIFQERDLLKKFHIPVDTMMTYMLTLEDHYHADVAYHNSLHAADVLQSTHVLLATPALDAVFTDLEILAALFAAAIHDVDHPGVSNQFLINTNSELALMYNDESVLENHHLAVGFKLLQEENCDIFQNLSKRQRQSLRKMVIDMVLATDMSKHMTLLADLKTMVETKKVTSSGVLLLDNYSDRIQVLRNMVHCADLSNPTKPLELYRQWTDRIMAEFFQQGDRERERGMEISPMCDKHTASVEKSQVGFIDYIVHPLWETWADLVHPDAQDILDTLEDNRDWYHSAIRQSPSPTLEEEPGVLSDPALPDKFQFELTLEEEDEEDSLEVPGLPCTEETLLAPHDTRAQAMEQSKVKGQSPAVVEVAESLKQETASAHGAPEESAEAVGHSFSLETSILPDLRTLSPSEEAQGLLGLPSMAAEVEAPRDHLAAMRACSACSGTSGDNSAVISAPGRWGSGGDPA
From the text: Values represent the average and SD of two or three independent experiments. […] The strains used are as in FIG. 5A, together with strain CHP1141 (PDE8A). Values represent the average and SD of two or three independent experiments.
Thus, PDE inhibition can be indirectly quantitated by measuring the effect of a compound on cAMP levels in target yeast strains.

[11] = test system: PDE4A, PDE4B, PDE4D, PDE7A, PDE7B, PDE8A, PDE3A; assay: Summary of PDE inhibitor profile; set-up: key: (1): Strong PDE7A inhibitor, weak to moderate PDE4A, 4B inhibitor; (2): Strong PDE7A and PDE4s (including PDE4D) inhibitor; (3): Strong PDE7A inhibitor; details: overall classification, Table 18 footnotes
[12] = target: T6, PDE8A (Mus musculus, UniProt O88502); assay: fbp1-lacZ β-galactosidase reporter assay, PDE8A strain; assay type: cell-based, murine
T6 construct: targets used in the assays are full-length proteins (as opposed to simply the catalytic domain); expressed in transfected cells; host or cells: Schizosaccharomyces pombe, PDE gene integrated in place of cgs2 (strains CHP1141, DDP13)
T6 sequence (O88502 1-823): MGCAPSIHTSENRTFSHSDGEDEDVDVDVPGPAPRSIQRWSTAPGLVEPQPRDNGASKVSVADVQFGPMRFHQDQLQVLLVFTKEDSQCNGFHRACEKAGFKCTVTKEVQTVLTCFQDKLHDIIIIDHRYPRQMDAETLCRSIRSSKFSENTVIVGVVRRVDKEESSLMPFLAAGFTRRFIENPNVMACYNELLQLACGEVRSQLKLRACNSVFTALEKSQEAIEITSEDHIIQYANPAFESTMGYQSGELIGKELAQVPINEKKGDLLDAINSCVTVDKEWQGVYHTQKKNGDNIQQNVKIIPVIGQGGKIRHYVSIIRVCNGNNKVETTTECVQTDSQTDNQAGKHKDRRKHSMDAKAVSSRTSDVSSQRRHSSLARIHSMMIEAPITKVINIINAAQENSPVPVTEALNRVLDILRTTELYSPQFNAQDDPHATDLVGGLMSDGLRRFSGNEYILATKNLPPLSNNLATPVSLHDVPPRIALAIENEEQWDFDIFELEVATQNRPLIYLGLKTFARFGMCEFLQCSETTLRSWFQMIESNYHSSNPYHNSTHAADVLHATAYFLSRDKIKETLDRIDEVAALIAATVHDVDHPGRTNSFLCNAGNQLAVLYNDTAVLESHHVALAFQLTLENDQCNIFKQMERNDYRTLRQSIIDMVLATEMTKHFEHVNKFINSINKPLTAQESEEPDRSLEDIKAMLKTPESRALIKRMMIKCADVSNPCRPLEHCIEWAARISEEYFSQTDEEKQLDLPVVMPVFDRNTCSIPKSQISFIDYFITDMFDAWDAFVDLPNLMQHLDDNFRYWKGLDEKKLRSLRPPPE
Experimental: β-galactosidase assays and characterization of 5FOA-sensitivity were carried out as previously described^10. cAMP assays were performed on exponential phase cells grown in EMM complete medium (3% glucose), using the Assay Designs cAMP EIA kit, according to manufacturer's instructions (Assay Designs, Ann arbor, Mich.).
The effect of known PDE inhibitors on the expression of the fbp1-lacZ fusion in murine PDE-expressing strains was tested. […] For Table 4 β-galactosidase activity was determined from 3 to 4 independent exponential phase cultures. The average±SD represents specific activity per milligram of soluble protein.

[13] = target: T7, PDE4D2-FL (Homo sapiens, UniProt Q08499); assay: in vitro enzyme assay, full-length PDE4D2 (residues 1-507); assay type: biochemical; details: read-out: IC50 (or AC200), PDE4D2-FL
T7 construct: 1-507; made in house; host or cells: E. coli

[14] = target: T4, PDE7A; assay: in vitro enzyme assay PDE7A; assay type: biochemical; set-up: made in house; host or cells: E. coli; details: E. coli expressed and purified enzyme; read-out: IC50 (or AC200), PDE7A
[15] = optical density after 48 hours at 30° C.

T4 sequence (Q13946 whole entry, the tested form may be a part): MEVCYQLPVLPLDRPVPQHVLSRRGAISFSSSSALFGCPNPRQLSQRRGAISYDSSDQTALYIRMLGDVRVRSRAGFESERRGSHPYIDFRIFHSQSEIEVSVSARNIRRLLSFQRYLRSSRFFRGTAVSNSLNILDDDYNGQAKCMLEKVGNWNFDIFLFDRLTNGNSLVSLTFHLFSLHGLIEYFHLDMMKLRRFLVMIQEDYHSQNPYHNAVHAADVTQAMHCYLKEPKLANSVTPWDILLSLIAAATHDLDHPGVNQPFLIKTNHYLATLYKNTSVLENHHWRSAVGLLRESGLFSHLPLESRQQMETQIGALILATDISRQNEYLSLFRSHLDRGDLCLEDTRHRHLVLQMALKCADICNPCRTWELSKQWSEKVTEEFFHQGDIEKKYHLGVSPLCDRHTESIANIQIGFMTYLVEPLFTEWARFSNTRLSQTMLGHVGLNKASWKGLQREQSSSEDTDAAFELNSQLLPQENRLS
T1 sequence (Q08499 388-715): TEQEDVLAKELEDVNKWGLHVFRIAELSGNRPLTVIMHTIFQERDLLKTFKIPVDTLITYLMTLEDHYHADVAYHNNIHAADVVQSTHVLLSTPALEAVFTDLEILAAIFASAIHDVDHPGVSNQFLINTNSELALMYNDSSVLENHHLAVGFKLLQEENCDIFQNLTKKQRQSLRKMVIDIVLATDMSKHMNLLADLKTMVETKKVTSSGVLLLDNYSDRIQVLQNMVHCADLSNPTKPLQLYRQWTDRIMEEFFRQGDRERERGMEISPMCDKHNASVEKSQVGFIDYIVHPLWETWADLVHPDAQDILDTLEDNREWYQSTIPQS
T7 sequence (Q08499 303-809): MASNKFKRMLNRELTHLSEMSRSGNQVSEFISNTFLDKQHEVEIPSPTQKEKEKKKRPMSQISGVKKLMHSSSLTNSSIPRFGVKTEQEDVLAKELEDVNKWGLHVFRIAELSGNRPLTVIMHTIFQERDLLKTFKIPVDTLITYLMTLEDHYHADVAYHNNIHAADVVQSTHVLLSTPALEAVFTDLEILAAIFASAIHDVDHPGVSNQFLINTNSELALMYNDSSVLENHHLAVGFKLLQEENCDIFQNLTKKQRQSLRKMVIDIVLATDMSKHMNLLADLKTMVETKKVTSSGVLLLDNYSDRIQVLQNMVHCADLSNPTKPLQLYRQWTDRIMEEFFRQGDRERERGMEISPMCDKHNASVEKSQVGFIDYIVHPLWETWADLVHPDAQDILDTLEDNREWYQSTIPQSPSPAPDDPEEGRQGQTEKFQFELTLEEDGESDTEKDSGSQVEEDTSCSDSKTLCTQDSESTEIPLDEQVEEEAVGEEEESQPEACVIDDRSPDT

CN(C)c1ccc(/C=C/C=C2/C(=O)NC(=O)N(c3ccccc3)C2=O)cc1 [BC12]
PDE4D catalytic domain, 2 uM cpm ([1]; 2 uM compound): 3686 cpm
activity at 2 µM ([1]; 2 micromolar compound, DMSO = 100, read-out: In vitro activation of PDE4D catalytic domain, % activity): 133%
inhibition of PDE7B from pulmonary endothelial cells, in words [2]: potent inhibitor
Ki ([2]; KI on PDE7 (PDE7B) from rat pulmonary endothelial cells, cell extracts): ~200 nM
KI lower than that of BRL50481 ([2]; PDE7B, rat pulmonary endothelial cell extracts): approximately 100 fold
TNF alpha reduction, conclusion in words [3]: shows activity
apoptosis of lymphoma cells, in words [4]: apoptosis effect
activity in CLL assay, in words [5]: shows activity
PDE inhibitor profile, in words [6]: PDE7 inhibitor that appears to activate PDE4D and PDE7B in vitro (not in vivo)
PDE7B, 2 uM cpm ([7]; 2 uM compound): 2388 cpm
effect on cAMP hydrolysis by PDE7B in vitro, in words ([7]; E. coli-expressed catalytic domain): increases cAMP hydrolysis
5FOA growth response, PDE7B strain, in words [8, 15]: most potent inhibitor, promoting growth at low micromolar concentrations
5FOA growth response, PDE7A strain, in words [9, 15]: most potent inhibitor, promoting growth at low micromolar concentrations

Cc1cc(C)nc(SCCS(=O)(=O)c2ccc(C(C)(C)C)cc2)n1 [Compound 26]
cAMP Response (% rolipram), 4A1 [10]: 96.00 % rolipram

COc1ccc2c(c1)C1(C)CCC(=O)CC1CC2 (single isomer, unassigned) [Compound 39]
PDE inhibitor profile (Table 18) [11]: 39 (1)

OCCN(CCO)c1nc(N2CCCCC2)c2nc(N(CCO)CCO)nc(N3CCCCC3)c2n1 [dipyridamole, Dipyridamole]
inhibition of PDE8A in yeast, in words [12]: not able to be inhibited

Cc1ccc([N+](=O)[O-])cc1S(=O)(=O)N(C)C [BRL50481, reference compound]
IC50 [13]: > 20000 nM
IC50 [14]: 200 nM
IC50 ([7]; AC200 = [Compound] that doubles PDE activity, read-out: IC50 (or AC200), PDE7B): 18000 nM
EC50 ([8]; OD600 0.6, read-out: ED50 for 5FOA growth assays, PDE7B): 42000 nM
EC50 ([9]; OD600 0.6, read-out: ED50 for 5FOA growth assays, PDE7A): 1300 nM
